Measured values: PubChem BioAssay (NCI)
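Five compound concentrations were applied to cells in 96-well plates for 48 hours; endpoints were derived by simple linear interpolation of the resulting dose-response curve. TGI is the concentration that stops growth completely.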

Key:
Test in all cases: inhibition of tumour cell growth, NCI panel, 48 h
[1] = test system: 786-0 renal
[2] = test system: A498 renal
[3] = test system: A549 NSCLC
[4] = test system: ACHN renal
[5] = test system: BT-549 breast
[6] = test system: CAKI-1 renal
[7] = test system: CCRF-CEM leukemia
[8] = test system: COLO 205 colon
[9] = test system: DU-145 prostate
[10] = test system: EKVX NSCLC
[11] = test system: HCC-2998 colon
[12] = test system: HCT-116 colon
[13] = test system: HCT-15 colon
[14] = test system: HL-60(TB) leukemia
[15] = test system: HOP-62 NSCLC
[16] = test system: HOP-92 NSCLC
[17] = test system: HS 578T breast
[18] = test system: HT29 colon
[19] = test system: IGROV1 ovarian
[20] = test system: K-562 leukemia
[21] = test system: KM12 colon
[22] = test system: LOX IMVI melanoma
[23] = test system: M14 melanoma
[24] = test system: MALME-3M melanoma
[25] = test system: MCF7 breast
[26] = test system: MDA-MB-231 breast
[27] = test system: MDA-MB-435
[28] = test system: MDA-N
[29] = test system: MOLT-4 leukemia
[30] = test system: NCI-H226 lung
[31] = test system: NCI-H23 lung
[32] = test system: NCI-H460 lung
[33] = test system: NCI-H522 lung
[34] = test system: NCI/ADR-RES ovarian
[35] = test system: OVCAR-3 ovarian
[36] = test system: OVCAR-4 ovarian
[37] = test system: OVCAR-5 ovarian
[38] = test system: OVCAR-8 ovarian
[39] = test system: PC-3 prostate
[40] = test system: RPMI-8226 leukemia
[41] = test system: RXF 393 renal
[42] = test system: SF-268 CNS
[43] = test system: SF-295 CNS
[44] = test system: SF-539 CNS
[45] = test system: SK-MEL-2 melanoma
[46] = test system: SK-MEL-28 melanoma
[47] = test system: SK-MEL-5 melanoma
[48] = test system: SK-OV-3 ovarian
[49] = test system: SN12C renal
[50] = test system: SNB-19 CNS
[51] = test system: SW-620 colon
[52] = test system: TK-10 renal
[53] = test system: U251 CNS
[54] = test system: UACC-257 melanoma
[55] = test system: UACC-62 melanoma
[56] = test system: UO-31 renal
[57] = test system: SR leukemia

In the case of `NC(=O)N/N=C\c1ccccc1OCc1cccc(COc2ccccc2/C=N\NC(N)=O)n1`, the TGI [1] was > 100 µM, the TGI [2] was > 100 µM and the TGI [3] was > 100 µM. For the same compound, the TGI [4] was > 100 µM, the TGI [5] was 81.8 µM and the TGI [6] was > 100 µM. The TGI [7] was > 100 µM, the TGI [8] was > 100 µM and the TGI [9] was 47.7 µM. For the same compound, the TGI [10] was 69.5 µM, the TGI [11] was > 100 µM and the TGI [12] was > 100 µM. The TGI [13] was > 100 µM, the TGI [14] was > 100 µM and the TGI [15] was 27 µM. The TGI [16] was 55.6 µM, the TGI [17] was > 100 µM and the TGI [18] was > 100 µM. The TGI [19] was > 100 µM, the TGI [20] was > 100 µM and the TGI [21] was > 100 µM. The TGI [22] was > 100 µM, the TGI [23] was > 100 µM and the TGI [24] was > 100 µM. The TGI [25] was > 100 µM, the TGI [26] was 32.8 µM and the TGI [27] was > 100 µM. The TGI [28] was > 100 µM, the TGI [29] was > 100 µM and the TGI [30] was > 100 µM. The TGI [31] was > 100 µM, the TGI [32] was > 100 µM and the TGI [33] was > 100 µM. The TGI [34] was > 100 µM, the TGI [35] was > 100 µM and the TGI [36] was > 100 µM. For the same compound, the TGI [37] was > 100 µM, the TGI [38] was > 100 µM and the TGI [39] was > 100 µM. For the same compound, the TGI [40] was > 100 µM, the TGI [41] was 31.5 µM and the TGI [42] was 88.6 µM. For the same compound, the TGI [43] was 33.8 µM, the TGI [44] was 47.9 µM and the TGI [45] was > 100 µM. For the same compound, the TGI [46] was > 100 µM, the TGI [47] was > 100 µM and the TGI [48] was 49.9 µM. The TGI [49] was > 100 µM, the TGI [50] was > 100 µM and the TGI [51] was > 100 µM. For the same compound, the TGI [52] was 85.6 µM, the TGI [53] was 18.7 µM and the TGI [54] was > 100 µM. For the same compound, the TGI [55] was 51.6 µM and the TGI [56] was > 100 µM.
With `CCN(CC)c1ccc2cc(-c3nc(-c4ccccc4)n[nH]3)c(=O)oc2c1` the TGI [1] was 32.1 µM, the TGI [2] was 90.1 µM and the TGI [3] was > 100 µM. The TGI [4] was > 100 µM, the TGI [5] was 89.3 µM and the TGI [6] was 73.8 µM. For the same compound, the TGI [7] was > 100 µM, the TGI [8] was > 100 µM and the TGI [9] was 40.4 µM. For the same compound, the TGI [10] was 88.7 µM, the TGI [11] was > 100 µM and the TGI [12] was > 100 µM. The TGI [13] was > 100 µM, the TGI [14] was > 100 µM and the TGI [15] was 22 µM. The TGI [17] was > 100 µM, the TGI [18] was > 100 µM and the TGI [19] was 57.9 µM. For the same compound, the TGI [20] was > 100 µM, the TGI [21] was > 100 µM and the TGI [22] was > 100 µM. For the same compound, the TGI [23] was > 100 µM, the TGI [24] was > 100 µM and the TGI [25] was > 100 µM. For the same compound, the TGI [27] was > 100 µM, the TGI [28] was > 100 µM and the TGI [29] was > 100 µM. For the same compound, the TGI [31] was 44.6 µM, the TGI [32] was > 100 µM and the TGI [33] was > 100 µM. For the same compound, the TGI [34] was > 100 µM, the TGI [35] was > 100 µM and the TGI [36] was 53.7 µM. For the same compound, the TGI [37] was > 100 µM, the TGI [38] was 28.7 µM and the TGI [39] was 70.1 µM. For the same compound, the TGI [40] was > 100 µM, the TGI [42] was > 100 µM and the TGI [43] was > 100 µM. For the same compound, the TGI [44] was 45.6 µM, the TGI [45] was > 100 µM and the TGI [46] was > 100 µM. The TGI [47] was > 100 µM, the TGI [48] was 39.4 µM and the TGI [50] was 61.5 µM. For the same compound, the TGI [57] was > 100 µM, the TGI [51] was > 100 µM and the TGI [53] was 96.2 µM. The TGI [54] was > 100 µM, the TGI [55] was > 100 µM and the TGI [56] was 20.4 µM.
In the case of `O=c1[nH]c(=S)[nH]c2c1C(c1ccc(Cl)cc1)c1c([nH]c(=S)[nH]c1=O)O2`, the TGI [1] was > 100 µM, the TGI [2] was > 100 µM and the TGI [3] was > 100 µM. The TGI [4] was > 100 µM, the TGI [5] was > 100 µM and the TGI [6] was > 100 µM. For the same compound, the TGI [7] was > 100 µM, the TGI [8] was > 100 µM and the TGI [9] was > 100 µM. The TGI [10] was > 100 µM, the TGI [12] was > 100 µM and the TGI [13] was > 100 µM. For the same compound, the TGI [14] was > 100 µM, the TGI [15] was > 100 µM and the TGI [16] was > 100 µM. The TGI [17] was > 100 µM, the TGI [18] was > 100 µM and the TGI [19] was > 100 µM. For the same compound, the TGI [20] was > 100 µM, the TGI [21] was > 100 µM and the TGI [22] was > 100 µM. For the same compound, the TGI [23] was > 100 µM, the TGI [24] was > 100 µM and the TGI [25] was > 100 µM. For the same compound, the TGI [26] was > 100 µM, the TGI [27] was > 100 µM and the TGI [28] was > 100 µM. For the same compound, the TGI [29] was > 100 µM, the TGI [30] was > 100 µM and the TGI [31] was > 100 µM. For the same compound, the TGI [32] was > 100 µM, the TGI [33] was > 100 µM and the TGI [34] was > 100 µM. The TGI [35] was > 100 µM, the TGI [36] was > 100 µM and the TGI [37] was > 100 µM. For the same compound, the TGI [38] was > 100 µM, the TGI [39] was > 100 µM and the TGI [40] was > 100 µM. For the same compound, the TGI [41] was > 100 µM, the TGI [42] was > 100 µM and the TGI [43] was > 100 µM. The TGI [45] was > 100 µM, the TGI [46] was > 100 µM and the TGI [47] was > 100 µM. The TGI [49] was > 100 µM, the TGI [50] was > 100 µM and the TGI [51] was > 100 µM. For the same compound, the TGI [52] was > 100 µM, the TGI [53] was > 100 µM and the TGI [54] was > 100 µM. The TGI [55] was > 100 µM and the TGI [56] was > 100 µM.
